From patent US20220226265A1, “METHODS OF CONTROLLING MYOCARDIAL BLOOD FLOW” (UNIVERSITY OF LOUISVILLE RESEARCH FOUNDATION, INC., priority 2021, published 2022)

Tested on: WT and Kvβ2−/− mice
Test: Arterial blood pressure (femoral artery catheter) during norepinephrine infusion
Assay type: in vivo, mouse
Conditions: norepinephrine infusion 5 μg/kg·min−1
Excerpt: In vivo measurements of cardiac function and myocardial blood flow: Mice were anesthetized with 3% isoflurane and supplemental O2, administered (1 L·min^−1) in a small induction chamber. After induction, the mice were placed on a controlled heating table in a supine position. Anesthesia was maintained throughout the procedure by delivery of 1-2% isoflurane and supplemental O2 (0.5 L·min^−1). The extremities were secured to the surgical table by tape and a lubricated probe was inserted rectally to monitor body temperature. The chest, neck, and hind limb hair were then removed using a depilatory agent, the skin was rinsed with warm water, and the neck area was disinfected with 70% ethanol/betadine and an incision (10-15 mm) was made at the right side of the neck. […]
Measurements of cardiac function, myocardial perfusion, and arterial blood pressure were performed at baseline, after administration of hexamethonium (5 mg·kg^−1, i.v.), and following successive doses of norepinephrine (0.5, 1.0, 2.5, and 5.0 μg·kg^−1·min^−1; 3 min duration each dose, followed by 3-5 min washout). […] Left ventricular volume at end diastole (LVEDV) and end systole (LVESV), as well left ventricular internal diameter at end diastole (LVID,d) and end systole (LVID,s) were measured at steady state after drug infusions. […]

NC[C@H](O)c1ccc(O)c(O)c1 [norepinephrine]
time of infusion after which norepinephrine-induced elevation of pressure declined (Kvβ2−/− mice): ~40 s | increase in arterial blood pressure (WT animals): sustained for the duration of drug administration
